# Experimental data published in the supplement of paper PMC8671470.
# Test system: K-562
# Assay: cell viability (% survival relative to DMSO control, bortezomib = 0%); higher = less cytotoxic
# Details: 1 nM; 72 h
# How it was run: (§1)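 Reported values are percent survival from duplicate wells, averaged. Fifteen myeloid leukaemia cell lines were treated in 384-well plates with compounds at 1, 10, 100, 1000 or 10000 nM for 72 h at 37 °C in 5% CO2. Signals from CellTiter-Glo luminescence were scaled with vehicle as 100% and a 10 µM positive control as 0%.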
row,Compound,cell viability [%]
1,CCCCCCCCCCCCCCOc1ccc(C(=O)O)o1 [TOFA],100
2,CN1CC(=O)N2[C@H](c3ccc4c(c3)OCO4)c3[nH]c4ccccc4c3C[C@@H]2C1=O [Tadalafil],108

# Same assay, conditions: 10 nM; 72 h
row,Compound,cell viability [%]
1,CC(C)(F)C[C@H](N[C@@H](c1ccc(-c2ccc(S(C)(=O)=O)cc2)cc1)C(F)(F)F)C(=O)NC1(C#N)CC1 [Odanacatib],106
2,Nc1nc(O)c2c(CCc3ccc(C(=O)N[C@@H](CCC(=O)O)C(=O)O)cc3)c[nH]c2n1 [Pemetrexed],104
3,C=C1NC(=O)c2cc(CN(C)c3ccc(C(=O)N[C@@H](CCC(=O)O)C(=O)O)s3)ccc2N1 [Raltitrexed],121
4,CNC(=C[N+](=O)[O-])NCCSCc1ccc(CN(C)C)o1 [Ranitidine],92.1
5,C#CCN[C@@H]1CCc2ccccc21 [Rasagiline],100
6,NC(CCC(=O)NC(CSCc1ccc(Br)cc1)C(=O)NCC(=O)OC1CCCC1)C(=O)OC1CCCC1 (stereo not given) [S-para-Bromobenzylglutathione cyclopentyl diester],106
7,COc1cc(C2Oc3cc(C4Oc5cc(O)cc(O)c5C(=O)C4O)ccc3OC2CO)ccc1O (stereo not given) [Silibinin],97.7
8,Fc1ccc(CNc2ncnc3ccc(F)cc23)cc1 [Spautin 1],97
9,Cn1c2cc(S(C)=O)sc2c2cnn(Cc3cccc(N)c3)c(=O)c21 (stereo not given) [TEPP-46],92.1
10,CCCCCCCCCCCCCCOc1ccc(C(=O)O)o1 [TOFA],93.4
11,CN1CC(=O)N2[C@H](c3ccc4c(c3)OCO4)c3[nH]c4ccccc4c3C[C@@H]2C1=O [Tadalafil],105

# Same assay, conditions: 100 nM; 72 h
row,Compound,cell viability [%]
1,CC(C)(F)C[C@H](N[C@@H](c1ccc(-c2ccc(S(C)(=O)=O)cc2)cc1)C(F)(F)F)C(=O)NC1(C#N)CC1 [Odanacatib],104
2,Nc1nc(O)c2c(CCc3ccc(C(=O)N[C@@H](CCC(=O)O)C(=O)O)cc3)c[nH]c2n1 [Pemetrexed],92.3
3,C=C1NC(=O)c2cc(CN(C)c3ccc(C(=O)N[C@@H](CCC(=O)O)C(=O)O)s3)ccc2N1 [Raltitrexed],86.5
4,CNC(=C[N+](=O)[O-])NCCSCc1ccc(CN(C)C)o1 [Ranitidine],93.5
5,C#CCN[C@@H]1CCc2ccccc21 [Rasagiline],100
6,NC(CCC(=O)NC(CSCc1ccc(Br)cc1)C(=O)NCC(=O)OC1CCCC1)C(=O)OC1CCCC1 (stereo not given) [S-para-Bromobenzylglutathione cyclopentyl diester],104
7,COc1cc(C2Oc3cc(C4Oc5cc(O)cc(O)c5C(=O)C4O)ccc3OC2CO)ccc1O (stereo not given) [Silibinin],102
8,Fc1ccc(CNc2ncnc3ccc(F)cc23)cc1 [Spautin 1],100
9,Cn1c2cc(S(C)=O)sc2c2cnn(Cc3cccc(N)c3)c(=O)c21 (stereo not given) [TEPP-46],101
10,CCCCCCCCCCCCCCOc1ccc(C(=O)O)o1 [TOFA],92
11,CN1CC(=O)N2[C@H](c3ccc4c(c3)OCO4)c3[nH]c4ccccc4c3C[C@@H]2C1=O [Tadalafil],90.6

# Same assay, conditions: 1000 nM; 72 h
row,Compound,cell viability [%]
1,CC(C)(F)C[C@H](N[C@@H](c1ccc(-c2ccc(S(C)(=O)=O)cc2)cc1)C(F)(F)F)C(=O)NC1(C#N)CC1 [Odanacatib],91.8
2,Nc1nc(O)c2c(CCc3ccc(C(=O)N[C@@H](CCC(=O)O)C(=O)O)cc3)c[nH]c2n1 [Pemetrexed],68.4
3,C=C1NC(=O)c2cc(CN(C)c3ccc(C(=O)N[C@@H](CCC(=O)O)C(=O)O)s3)ccc2N1 [Raltitrexed],49.2
4,CNC(=C[N+](=O)[O-])NCCSCc1ccc(CN(C)C)o1 [Ranitidine],97.3
5,C#CCN[C@@H]1CCc2ccccc21 [Rasagiline],87.5
6,NC(CCC(=O)NC(CSCc1ccc(Br)cc1)C(=O)NCC(=O)OC1CCCC1)C(=O)OC1CCCC1 (stereo not given) [S-para-Bromobenzylglutathione cyclopentyl diester],112
7,COc1cc(C2Oc3cc(C4Oc5cc(O)cc(O)c5C(=O)C4O)ccc3OC2CO)ccc1O (stereo not given) [Silibinin],94.5
8,Fc1ccc(CNc2ncnc3ccc(F)cc23)cc1 [Spautin 1],69.8
9,Cn1c2cc(S(C)=O)sc2c2cnn(Cc3cccc(N)c3)c(=O)c21 (stereo not given) [TEPP-46],111
10,CCCCCCCCCCCCCCOc1ccc(C(=O)O)o1 [TOFA],108
11,CN1CC(=O)N2[C@H](c3ccc4c(c3)OCO4)c3[nH]c4ccccc4c3C[C@@H]2C1=O [Tadalafil],96.4

# Same assay, conditions: 10000 nM; 72 h
row,Compound,cell viability [%]
1,CC(C)(F)C[C@H](N[C@@H](c1ccc(-c2ccc(S(C)(=O)=O)cc2)cc1)C(F)(F)F)C(=O)NC1(C#N)CC1 [Odanacatib],103
2,Nc1nc(O)c2c(CCc3ccc(C(=O)N[C@@H](CCC(=O)O)C(=O)O)cc3)c[nH]c2n1 [Pemetrexed],27.8
3,C=C1NC(=O)c2cc(CN(C)c3ccc(C(=O)N[C@@H](CCC(=O)O)C(=O)O)s3)ccc2N1 [Raltitrexed],52.4
4,CNC(=C[N+](=O)[O-])NCCSCc1ccc(CN(C)C)o1 [Ranitidine],103
5,C#CCN[C@@H]1CCc2ccccc21 [Rasagiline],84.2
6,NC(CCC(=O)NC(CSCc1ccc(Br)cc1)C(=O)NCC(=O)OC1CCCC1)C(=O)OC1CCCC1 (stereo not given) [S-para-Bromobenzylglutathione cyclopentyl diester],93.2
7,COc1cc(C2Oc3cc(C4Oc5cc(O)cc(O)c5C(=O)C4O)ccc3OC2CO)ccc1O (stereo not given) [Silibinin],76.4
8,Fc1ccc(CNc2ncnc3ccc(F)cc23)cc1 [Spautin 1],16.9
9,Cn1c2cc(S(C)=O)sc2c2cnn(Cc3cccc(N)c3)c(=O)c21 (stereo not given) [TEPP-46],81.8
10,CCCCCCCCCCCCCCOc1ccc(C(=O)O)o1 [TOFA],114
11,CN1CC(=O)N2[C@H](c3ccc4c(c3)OCO4)c3[nH]c4ccccc4c3C[C@@H]2C1=O [Tadalafil],91

# Test system: LAMA-84
# Assay: as above
# Details: 1 nM; 72 h
# How it was run: as §1
row,Compound,cell viability [%]
1,CC(C)(F)C[C@H](N[C@@H](c1ccc(-c2ccc(S(C)(=O)=O)cc2)cc1)C(F)(F)F)C(=O)NC1(C#N)CC1 [Odanacatib],104
2,Nc1nc(O)c2c(CCc3ccc(C(=O)N[C@@H](CCC(=O)O)C(=O)O)cc3)c[nH]c2n1 [Pemetrexed],99
3,C=C1NC(=O)c2cc(CN(C)c3ccc(C(=O)N[C@@H](CCC(=O)O)C(=O)O)s3)ccc2N1 [Raltitrexed],97.1
4,CNC(=C[N+](=O)[O-])NCCSCc1ccc(CN(C)C)o1 [Ranitidine],107
5,C#CCN[C@@H]1CCc2ccccc21 [Rasagiline],98.2
6,NC(CCC(=O)NC(CSCc1ccc(Br)cc1)C(=O)NCC(=O)OC1CCCC1)C(=O)OC1CCCC1 (stereo not given) [S-para-Bromobenzylglutathione cyclopentyl diester],101
7,COc1cc(C2Oc3cc(C4Oc5cc(O)cc(O)c5C(=O)C4O)ccc3OC2CO)ccc1O (stereo not given) [Silibinin],98.1
8,Fc1ccc(CNc2ncnc3ccc(F)cc23)cc1 [Spautin 1],103
9,Cn1c2cc(S(C)=O)sc2c2cnn(Cc3cccc(N)c3)c(=O)c21 (stereo not given) [TEPP-46],106
10,CCCCCCCCCCCCCCOc1ccc(C(=O)O)o1 [TOFA],106
11,CN1CC(=O)N2[C@H](c3ccc4c(c3)OCO4)c3[nH]c4ccccc4c3C[C@@H]2C1=O [Tadalafil],101

# Same assay, conditions: 10 nM; 72 h
row,Compound,cell viability [%]
1,CC(C)(F)C[C@H](N[C@@H](c1ccc(-c2ccc(S(C)(=O)=O)cc2)cc1)C(F)(F)F)C(=O)NC1(C#N)CC1 [Odanacatib],103
2,Nc1nc(O)c2c(CCc3ccc(C(=O)N[C@@H](CCC(=O)O)C(=O)O)cc3)c[nH]c2n1 [Pemetrexed],99.3
3,C=C1NC(=O)c2cc(CN(C)c3ccc(C(=O)N[C@@H](CCC(=O)O)C(=O)O)s3)ccc2N1 [Raltitrexed],108
4,CNC(=C[N+](=O)[O-])NCCSCc1ccc(CN(C)C)o1 [Ranitidine],89.3
5,C#CCN[C@@H]1CCc2ccccc21 [Rasagiline],106
6,NC(CCC(=O)NC(CSCc1ccc(Br)cc1)C(=O)NCC(=O)OC1CCCC1)C(=O)OC1CCCC1 (stereo not given) [S-para-Bromobenzylglutathione cyclopentyl diester],110
7,COc1cc(C2Oc3cc(C4Oc5cc(O)cc(O)c5C(=O)C4O)ccc3OC2CO)ccc1O (stereo not given) [Silibinin],102
8,Fc1ccc(CNc2ncnc3ccc(F)cc23)cc1 [Spautin 1],103
